Columns and labels:
IGF1R = IGF1R (Homo sapiens, UniProt P08069); experiment: In vitro kinase specificity profiling; type: biochemical
T790M/L858R EGFR = T790M/L858R EGFR (Homo sapiens, UniProt P00533, L858R/T790M); experiment: In vitro kinase specificity profiling; type: biochemical
PD-L1 = PD-L1 phosphorylation sites by mass spectrometry in HEK293T cells transfected with Flag-PD-L1; type: cell-based, human; settings: Flag-PD-L1, 10 μM ES-072 48 h, MS-MS
Protocol: Fig. 2 Phosphorylation on S279/S283 impairs the stability of PD-L1. a Mapping PD-L1 phosphorylation sites following ES-072 treatment. HEK293T cells were transfected with Flag-PD-L1 and treated with 10 μM ES-072 for 48 h. Immunoprecipitated PD-L1 was analyzed by mass spectrometry following phosphopeptide enrichment. Peptide ionization data corresponding to Ser279/283 are shown. b Schematic diagram of phosphorylated sites on PD-L1. Full-length PD-L1 was separated into an extracellular domain (ECD) and intracellular domain (ICD). SP: signal peptide; TM: transmembrane domain. c Schematic diagram of phosphorylated sites, S279 and S283 in the ICD of PD-L1. Positions of phosphorylated sites were labeled in red. This image was created by the first author. d Immunoblots of PD-L1 (anti-Flag) in HEK293T cells transfected with Flag-PD-L1 (WT) or Flag-PD-L1 (mutants) following treatment with 25 ng/mL EGF and/or 10 μM ES-072 for 48 h, 2SA represents S279A/S283A. e Immunoblots of PD-L1 (anti-Flag) in HEK293T cells transfected with Flag-PD-L1 (WT/2SA) following treatment with 20 μg/mL cycloheximide (CHX) for indicated times. f Immunoblots of H1975 cell lysates following ES-072 treatment for 2 h, at indicated doses. g HEK293T cells were transfected with Flag-PD-L1 (WT/2SA) following treatment with 10 μM ES-072 for 2 h; PD-L1 was immunoprecipitated with anti-Flag and immunoblotted with indicated antibodies. Flag-tagged empty vector (Flag-EV) was transfected as a negative control. h Representative images of p-PD-L1 (Ser279) and PD-L1 immunohistochemistry (IHC) staining from EGFR wild-type vs. mutant human alveolar adenocarcinoma specimens. Scale bars represent 50 μm. i, j Quantification of IHC analysis for p-PD-L1 (Ser279) (i) and PD-L1 (j) in h. Data represent means ± SEM, n = 7 (i), n = 5 (j), **P < 0.01, P = 0.0013 (i); P = 0.002 (j). k Immunoblottings of p-PD-L1 (Ser279) and PD-L1 in EGFR wild-type (n = 4) vs. mutant (n = 4) human lung adenocarcinoma specimens. Source data are provided as a Source Data file.
Flag-tagged PD-L1 was overexpressed in HEK293T cells and were trypsin-digested. PD-L1 was immunoprecipitated with beads following immunoprecipitation. The resulting peptides were subjected to the phosphopeptide enrichment using TiO2 beads. The enriched phospho-peptides were analyzed on the Q Exactive™ HF mass spectrometer (Thermo Fisher Scientific). The identification and quantification of phosphorylated peptides were done by MaxQuant. The tandem mass spectra were searched against the UniProt human protein database together with a set of commonly observed contaminants. The precursor mass tolerance was set as 20 p.p.m. and the fragment mass tolerance was set as 0.1 Da. The […] cysteine carbamide methylation was set as a static modification and the methionine oxidation, as well as serine, threonine, and tyrosine phosphorylation, were set as variable modifications. The false discovery rate (FDR) at peptide spectrum match level was controlled below 1%.

CDK4 = CDK4 (Homo sapiens, UniProt P11802); experiment: In vitro kinase specificity profiling; type: biochemical
Sequence of CDK4 (P11802 whole entry, species assumed): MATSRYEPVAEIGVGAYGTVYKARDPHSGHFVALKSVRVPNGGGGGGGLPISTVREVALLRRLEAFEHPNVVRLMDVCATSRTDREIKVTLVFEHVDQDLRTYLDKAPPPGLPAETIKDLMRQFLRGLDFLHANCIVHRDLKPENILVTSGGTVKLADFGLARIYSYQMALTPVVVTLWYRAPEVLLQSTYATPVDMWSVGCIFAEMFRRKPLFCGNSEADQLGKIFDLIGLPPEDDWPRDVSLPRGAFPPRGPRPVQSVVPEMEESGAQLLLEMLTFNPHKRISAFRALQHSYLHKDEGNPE
Sequence of CDK4 (P30281 whole entry partner, species assumed): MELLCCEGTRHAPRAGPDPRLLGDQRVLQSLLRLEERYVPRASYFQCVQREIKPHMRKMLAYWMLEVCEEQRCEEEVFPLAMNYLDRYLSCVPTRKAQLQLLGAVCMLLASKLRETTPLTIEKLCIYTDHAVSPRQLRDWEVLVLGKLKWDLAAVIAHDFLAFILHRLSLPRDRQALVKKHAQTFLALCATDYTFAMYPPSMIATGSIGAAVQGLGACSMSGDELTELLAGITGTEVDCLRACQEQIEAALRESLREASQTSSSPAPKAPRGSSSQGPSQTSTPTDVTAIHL

Sequence of IGF1R (P08069 31-1367, species assumed): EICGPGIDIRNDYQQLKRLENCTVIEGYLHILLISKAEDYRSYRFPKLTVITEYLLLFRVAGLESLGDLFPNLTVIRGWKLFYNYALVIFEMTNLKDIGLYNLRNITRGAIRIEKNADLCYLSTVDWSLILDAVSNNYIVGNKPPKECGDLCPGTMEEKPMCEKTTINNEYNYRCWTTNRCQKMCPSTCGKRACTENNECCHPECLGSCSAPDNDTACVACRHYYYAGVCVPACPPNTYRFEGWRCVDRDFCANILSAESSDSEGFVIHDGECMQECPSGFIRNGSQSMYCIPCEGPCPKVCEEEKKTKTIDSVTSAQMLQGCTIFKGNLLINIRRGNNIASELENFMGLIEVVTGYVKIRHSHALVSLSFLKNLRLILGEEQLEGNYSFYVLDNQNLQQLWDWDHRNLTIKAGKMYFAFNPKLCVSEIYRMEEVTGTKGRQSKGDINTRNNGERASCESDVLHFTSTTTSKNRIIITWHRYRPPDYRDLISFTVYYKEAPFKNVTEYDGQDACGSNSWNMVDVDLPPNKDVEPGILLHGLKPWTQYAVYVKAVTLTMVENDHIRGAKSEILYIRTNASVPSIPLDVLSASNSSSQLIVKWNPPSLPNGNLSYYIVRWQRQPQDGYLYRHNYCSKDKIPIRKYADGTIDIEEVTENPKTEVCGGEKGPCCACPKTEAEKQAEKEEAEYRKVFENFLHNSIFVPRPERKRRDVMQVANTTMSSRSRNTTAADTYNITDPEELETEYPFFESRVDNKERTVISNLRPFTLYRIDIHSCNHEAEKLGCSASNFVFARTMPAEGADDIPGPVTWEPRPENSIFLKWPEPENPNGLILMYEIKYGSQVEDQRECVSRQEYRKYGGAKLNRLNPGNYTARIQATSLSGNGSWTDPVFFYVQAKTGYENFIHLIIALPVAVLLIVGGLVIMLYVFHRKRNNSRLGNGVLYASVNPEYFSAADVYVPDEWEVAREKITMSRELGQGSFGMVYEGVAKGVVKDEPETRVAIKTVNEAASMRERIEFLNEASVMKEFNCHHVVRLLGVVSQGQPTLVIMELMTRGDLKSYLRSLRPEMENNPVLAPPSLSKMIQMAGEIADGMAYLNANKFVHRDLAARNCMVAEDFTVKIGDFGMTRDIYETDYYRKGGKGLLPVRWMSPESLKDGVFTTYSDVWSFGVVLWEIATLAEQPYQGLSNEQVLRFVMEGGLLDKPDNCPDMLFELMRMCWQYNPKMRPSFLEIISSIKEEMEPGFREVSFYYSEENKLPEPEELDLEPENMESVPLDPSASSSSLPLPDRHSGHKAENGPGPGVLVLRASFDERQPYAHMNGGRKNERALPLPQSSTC
Sequence of T790M/L858R EGFR (P00533 25-1210 T790M/L858R): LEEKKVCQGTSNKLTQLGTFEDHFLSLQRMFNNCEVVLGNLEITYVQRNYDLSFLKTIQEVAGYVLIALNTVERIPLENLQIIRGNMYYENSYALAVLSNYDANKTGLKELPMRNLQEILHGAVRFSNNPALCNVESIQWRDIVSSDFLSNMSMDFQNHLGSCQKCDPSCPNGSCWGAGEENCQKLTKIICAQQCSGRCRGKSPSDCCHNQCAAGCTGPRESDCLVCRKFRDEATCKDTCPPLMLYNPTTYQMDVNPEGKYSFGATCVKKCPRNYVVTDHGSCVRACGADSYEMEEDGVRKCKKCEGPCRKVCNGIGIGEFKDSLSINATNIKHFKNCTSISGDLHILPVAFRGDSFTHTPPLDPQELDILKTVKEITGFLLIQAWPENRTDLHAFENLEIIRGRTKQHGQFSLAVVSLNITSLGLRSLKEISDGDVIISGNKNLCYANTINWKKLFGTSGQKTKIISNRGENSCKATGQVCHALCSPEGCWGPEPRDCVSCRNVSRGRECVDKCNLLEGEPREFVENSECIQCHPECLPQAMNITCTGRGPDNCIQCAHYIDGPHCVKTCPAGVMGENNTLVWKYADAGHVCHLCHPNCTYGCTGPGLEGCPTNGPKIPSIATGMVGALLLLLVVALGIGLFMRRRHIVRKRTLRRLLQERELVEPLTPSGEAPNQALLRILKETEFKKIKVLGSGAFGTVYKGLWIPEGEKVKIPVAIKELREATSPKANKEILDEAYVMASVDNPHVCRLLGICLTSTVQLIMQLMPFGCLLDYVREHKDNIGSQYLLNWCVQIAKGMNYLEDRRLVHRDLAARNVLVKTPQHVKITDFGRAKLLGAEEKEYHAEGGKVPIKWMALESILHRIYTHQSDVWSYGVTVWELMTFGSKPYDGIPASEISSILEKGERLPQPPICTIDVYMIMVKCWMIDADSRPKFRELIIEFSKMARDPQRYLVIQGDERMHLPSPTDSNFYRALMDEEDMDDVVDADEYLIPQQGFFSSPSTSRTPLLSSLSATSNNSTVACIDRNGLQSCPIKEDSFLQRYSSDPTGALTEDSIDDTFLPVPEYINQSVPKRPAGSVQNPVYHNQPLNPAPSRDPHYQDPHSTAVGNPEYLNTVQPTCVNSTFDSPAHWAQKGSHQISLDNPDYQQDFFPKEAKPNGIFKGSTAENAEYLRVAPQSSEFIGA

- IC50 (IGF1R): 127 nM
- IC50 (T790M/L858R EGFR): 1.75 nM
- IC50 (CDK4): > 10000 nM
SMILES: C=CC(=O)Nc1cccc(Nc2nc(Nc3ccc(N4CCN(C)CC4)nc3OC)ncc2C(F)(F)F)c1 [ES-072]
- ES/NC (PD-L1 phosphorylation site S79) (PD-L1): 1.28
- ES/NC (PD-L1 phosphorylation site S93) (PD-L1): 1.52
- ES/NC (PD-L1 phosphorylation site S170) (PD-L1): 0.00
- ES/NC (PD-L1 phosphorylation site S176) (PD-L1): 0.00
- ES/NC (PD-L1 phosphorylation site S279) (PD-L1): 5.00
- ES/NC (PD-L1 phosphorylation site S283) (PD-L1): 2.06
- ES/NC (PD-L1 phosphorylation site T290) (PD-L1): 1.95

— paper PMC8058344, “ARIH1 signaling promotes anti-tumor immunity by targeting PD-L1 for proteasomal degradation” (Nature Communications, 2021)
